Key:
[1] = Mouse liver microsomal stability, single 30 min time point; format: in vitro ADME; conditions: primary mouse liver microsomes (MLM)
[2] = In vivo mouse pharmacokinetics; conditions: male, CD-1, mouse, plasma
[3] = Intrinsic clearance in mouse liver microsomes; format: in vitro ADME
[4] = Metabolite ID study of 1i in mouse hepatocytes; format: in vitro ADME; conditions: 1i incubated 4 h in mouse primary hepatocytes; relative quantity by UV
[5] = Intrinsic clearance in mouse liver S9 fraction; format: in vitro ADME; conditions: male, CD-1, mouse
[6] = Intrinsic clearance in primary mouse hepatocytes; format: in vitro ADME; conditions: male, CD-1, mouse, cryopreserved primary hepatocytes
[7] = test system: mice; test: Dose ranging study of EA tolerability in mice; format: in vivo, mouse; conditions: i.p.

Structure (SMILES)	parent compound remaining after 30 min [1] [%]	AUC(0-t) ([2]; ip, 10 mg/kg) [ng·h/mL]	Cmax ([2]; ip, 10 mg/kg) [ng/mL]	bioavailability ([2]; ip, 10 mg/kg) [%]	Cmax ([2]; iv, 1 mg/kg) [ng/mL]	clearance ([2]; iv, 1 mg/kg) [mL/min/kg]	CLint scaled [3] [mL/min/kg]	rel. (%) of peak (metabolite or parent) [4] [%]	CLint scaled [5] [mL/min/kg]	half-life ([2]; ip, 10 mg/kg) [h]	AUC(0-t) ([2]; iv, 1 mg/kg) [ng·h/mL]	Vd ([2]; iv, 1 mg/kg) [L/kg]	half-life ([2]; iv, 1 mg/kg) [h]	CLint scaled at 1 μM [6] [mL/min/kg]	doses that resulted in clinical symptoms including death [7] [mg/kg]
CCC(=O)Nc1cc(Nc2cc(NC3CC3)n3ncc(C#N)c3n2)ccc1C [Compound 1a]	40	–	–	–	–	–	–	–	–	–	–	–	–	–	–
CN[C@H]1CCN(c2ccc(Nc3cc(NC4CC4)n4ncc(C#N)c4n3)cc2NC(C)=O)C1 [Compound 2e, (S)-N-(5-((3-Cyano-7-(cyclopropylamino)pyrazolo[1,5-a]pyrimidin-5-yl)amino)-2-(3-(methylamino)pyrrolidin-1-yl)phenyl)acetamide]	–	1300	1500	53	810	69	27	–	4	1.4	250	2.67	1.2	69	–
C=C(CC)C(=O)c1ccc(OCC(=O)O)c(Cl)c1Cl [EA, ethacrynic acid]	–	–	–	–	–	–	–	–	–	–	–	–	–	–	≥ 100

Now from value to compound, other results behind:

parent compound remaining after 30 min [1] [%]	AUC(0-t) ([2]; ip, 10 mg/kg) [ng·h/mL]	Cmax ([2]; ip, 10 mg/kg) [ng/mL]	bioavailability ([2]; ip, 10 mg/kg) [%]	Cmax ([2]; iv, 1 mg/kg) [ng/mL]	clearance ([2]; iv, 1 mg/kg) [mL/min/kg]	CLint scaled [3] [mL/min/kg]	rel. (%) of peak (metabolite or parent) [4] [%]	CLint scaled [5] [mL/min/kg]	half-life ([2]; ip, 10 mg/kg) [h]	AUC(0-t) ([2]; iv, 1 mg/kg) [ng·h/mL]	Vd ([2]; iv, 1 mg/kg) [L/kg]	half-life ([2]; iv, 1 mg/kg) [h]	CLint scaled at 1 μM [6] [mL/min/kg]	Structure (SMILES)	doses that resulted in clinical symptoms including death [7] [mg/kg]
–	7010	4700	100	1100	36	< 24	53	–	–	–	–	–	–	CCC(=O)Nc1cc(Nc2cc(NC3CC3)n3ncc(C#N)c3n2)ccc1N1CCC[C@H](NC)C1 [Compound 1i, (S)-N-(5-((3-Cyano-7-(cyclopropylamino)pyrazolo[1,5-a]pyrimidin-5-yl)amino)-2-(3-(methylamino)piperidin-1-yl)phenyl)propionamide]	–
–	770	670	40	350	84	< 24	–	1	1.5	200	5.07	1.8	132	CN[C@H]1CCCN(c2ccc(Nc3cc(NC4CC4)n4ncc(C#N)c4n3)cc2NC(C)=O)C1 [Compound 2c, (S)-N-(5-((3-Cyano-7-(cyclopropylamino)pyrazolo[1,5-a]pyrimidin-5-yl)amino)-2-(3-(methylamino)piperidin-1-yl)phenyl)acetamide]	–
